Test results reported in US20230391741A1, “AGAROFURAN COMPOUND, PREPARATION METHOD THEREFOR, AND APPLICATION THEREOF” (BEIJING CHY PHARMACEUTICAL TECHNOLOGY CO, LTD., priority 2021, published 2023).
“And” between values parts separate entries of the source, which are not always exact repeats. Equal values may be shown once.

System: male ICR mice
Experiment: Elevated plus maze (EPM) test, intraperitoneal injection
Assay type: in vivo, mouse
Settings: for Closed arm number of entries / Closed arm residence time / Open arm number of entries / Open arm residence time / Open arm/closed arm frequency ratio / Open arm/closed arm time ratio: mice, intraperitoneal, 5 min before entering the maze
Excerpt: The active ingredient used in the following pharmacological experiment, the compound shown in Formula (I) of the present application, is the final product in Example 1 of the present application, namely (1R,6S,9R)6,10,10-trimethyl-2-(4,4,4-trifluorobutyl)-11-oxatricyclo [7.2.1.0^1,6]dodec-2-ene (hereinafter referred to as Compound 2). Compound 2 and an excipient PVP (povidone K30) were mixed in an ethanol solution in a mass ratio of 1:15, spin-dried, and prepared into a preparation form of Compound 2 (the following Compound 2 refers to the preparation form of Compound 2). The preparation form of which the active ingredient was 4-butyl-α-agarofuran (BAF for short) was used as a positive drug, a preparation method for this preparation was the same as that of the preparation of Compound 2, and the following BAF refers to this preparation of BAF. PVP was a blank control. In addition, the administration dose was calculated according to a crude drug.
This model is one of the most commonly used animal models in the research of antianxiety drugs. The elevated plus maze is composed of an open arm (30×5×0.5 cm) and an closed arm (30×8×15 cm) that are crossed in a positive cross shape, and the instrument is suspended 50 cm above the ground. Due to the narrowness, suspension, and brightness of the open arm, there may be internal “fear” or conflict in the open arm, and on the contrary, it more complies with the nature of rodents in the closed arm. 5 min after administration, a mouse is placed in the center of the maze, and its head faces to the open arm. Open-arm and closed-arm entries and residence times in both arms during the experimental period (usually 5 min) are recorded respectively. The percentages of the open arm entries and the open arm residence times respectively accounting for the total entries (sum of the open arm and closed arm entries) and the total time (sum of the open arm and closed arm residence times) are calculated, as an indicator for evaluating the anxiety. Generally speaking, a drug is considered to have antianxiety effects in the case that the open arm cumulative residence time is prolonged without reducing the open arm and closed arm entries.
The experiment used male Institute of Cancer Research (ICR) mice (purchased from Beijing Weitong Lihua Experimental Animal Technology Co., Ltd.), the weight was 18-20 g, the mice were randomly divided into 7 groups according to the weight, and there were 13 mice in each group. Grip adaptation training was conducted on the mice before the experiment. Before the experiment, the mice were fasted for 12 hours. It was administered by an intraperitoneal injection mode. 4-butyl-α-agarofuran (BAF for short) was used as a positive drug, and PVP was a blank control. The specific grouping and disposal modes are as follows:
During detection, after intraperitoneal injection of BAF/Compound 2, each mouse was immediately placed in an open animal box and allowed to move freely for 5 min, then the mouse was placed on a central platform of the elevated plus maze, its head faced to a fixed open arm. The detection was started, timed for 5 min, and recorded with a supermaze software by using a camera head. After all the experiments were completed, the residence times (s) of the mice in the open arm and the closed arm, the open arm and closed arm entries, and the time ratios and frequency ratios of the open arm and closed arm entries were recorded with the supermaze software. 1 was added to the number of entry arms with a latency of 0.

With CCCCC1=CCC[C@@]2(C)CC[C@@H]3C[C@]12OC3(C)C [BAF, 4-butyl-α-agarofuran, reference compound] the “Closed arm number of entries” value (2 mg/kg, 2 mg/kg) was 10.31 ± 1.13 and 11.22 ± 1.5 and 9.90 ± 1.19, the “Closed arm residence time” value (2 mg/kg, 2 mg/kg) was 143.9 ± 9.32 s and 148.89 ± 8.27 s and 146.67 ± 7.95 s and the “Open arm number of entries” value (2 mg/kg, 2 mg/kg) was 8.62 ± 0.92 and 8.78 ± 1.1 and 8.80 ± 1.14. For the same compound, the “Open arm residence time” value (2 mg/kg, 2 mg/kg) was 115.97 ± 9.71 s and 110.32 ± 8.91 s and 110.04 ± 6.30 s, the “Open arm/closed arm frequency ratio” value (2 mg/kg, 2 mg/kg) was 0.85 ± 0.06 and 0.80 ± 0.07 and 0.89 ± 0.07 and the “Open arm/closed arm time ratio” value (2 mg/kg, 2 mg/kg) was 0.93 ± 0.16 and 0.79 ± 0.12 and 0.80 ± 0.11. For the same compound, the “Closed arm number of entries” value (4 mg/kg, 4 mg/kg) was 9.23 ± 0.57 and 8.89 ± 0.79 and 9.29 ± 0.68, the “Closed arm residence time” value (4 mg/kg, 4 mg/kg) was 153.35 ± 7.35 s and 162.64 ± 5.96 s and 144.17 ± 12.09 s and the “Open arm number of entries” value (4 mg/kg, 4 mg/kg) was 7.38 ± 0.58 and 6.56 ± 0.4 and 8.29 ± 0.87. The “Open arm residence time” value (4 mg/kg, 4 mg/kg) was 117.29 ± 7.44 s and 106.13 ± 3.91 s and 128.84 ± 11.89 s, the “Open arm/closed arm frequency ratio” value (4 mg/kg, 4 mg/kg) was 0.82 ± 0.07 and 0.77 ± 0.06 and 0.91 ± 0.09 and the “Open arm/closed arm time ratio” value (4 mg/kg, 4 mg/kg) was 0.82 ± 0.11 and 0.66 ± 0.04 and 0.98 ± 0.18. For the same compound, the “Closed arm number of entries” value (8 mg/kg, 8 mg/kg) was 9.85 ± 0.72 and 9.78 ± 1.00 and 9.60 ± 0.87, the “Closed arm residence time” value (8 mg/kg, 8 mg/kg) was 162.19 ± 10.92 s and 158.24 ± 14.9 s and 165.34 ± 13.19 s and the “Open arm number of entries” value (8 mg/kg, 8 mg/kg) was 7.69 ± 0.91 and 8.11 ± 1.27 and 7.10 ± 0.95. The “Open arm residence time” value (8 mg/kg, 8 mg/kg) was 110.07 ± 9.77 s and 113.25 ± 12.84 s and 107.74 ± 11.86 s, the “Open arm/closed arm frequency ratio” value (8 mg/kg, 8 mg/kg) was 0.76 ± 0.05 and 0.76 ± 0.07 and 0.72 ± 0.06 and the “Open arm/closed arm time ratio” value (8 mg/kg, 8 mg/kg) was 0.76 ± 0.10 and 0.81 ± 0.13 and 0.74 ± 0.12.
With CC1(C)O[C@]23C[C@H]1CC[C@]2(C)CCC=C3CCCC(F)(F)F [Compound 2, (1R,6S,9R)6,10,10-trimethyl-2-(4,4,4-trifluorobutyl)-11-oxatricyclo [7.2.1.0^1,6]dodec-2-ene] the “Efficacy compared with BAF” value (at both low and medium doses, especially low dose) was “better efficacy than BAF”, the “Efficacy compared with BAF” value (at low doses) was “better efficacy” and the “Antianxiety effects in elevated plus maze” value (intraperitoneal doses of 2.4, 4.8 and 9.6 mg/kg) was “significant antianxiety effects”. The “Closed arm number of entries” value (2.4 mg/kg) was 10.92 ± 0.84, the “Closed arm residence time” value (2.4 mg/kg) was 112.68 ± 8.68 s and the “Open arm number of entries” value (2.4 mg/kg) was 9.23 ± 0.47. The “Open arm residence time” value (2.4 mg/kg) was 144.06 ± 8.10 s, the “Open arm/closed arm frequency ratio” value (2.4 mg/kg) was 0.89 ± 0.06 and the “Open arm/closed arm time ratio” value (2.4 mg/kg) was 1.48 ± 0.24. The “Closed arm number of entries” value (4.8 mg/kg) was 10.00 ± 0.57, the “Closed arm residence time” value (4.8 mg/kg) was 149.91 ± 8.22 s and the “Open arm number of entries” value (4.8 mg/kg) was 9.08 ± 0.69. For the same compound, the “Open arm residence time” value (4.8 mg/kg) was 118.65 ± 6.32 s, the “Open arm/closed arm frequency ratio” value (4.8 mg/kg) was 0.93 ± 0.07 and the “Open arm/closed arm time ratio” value (4.8 mg/kg) was 0.86 ± 0.11. The “Closed arm number of entries” value (9.6 mg/kg) was 9.85 ± 1.08, the “Closed arm residence time” value (9.6 mg/kg) was 139.13 ± 11.37 s and the “Open arm number of entries” value (9.6 mg/kg) was 9.31 ± 1.12. The “Open arm residence time” value (9.6 mg/kg) was 115.0 ± 8.07 s, the “Open arm/closed arm frequency ratio” value (9.6 mg/kg) was 0.99 ± 0.10 and the “Open arm/closed arm time ratio” value (9.6 mg/kg) was 0.93 ± 0.12.
